Data from article PMC12652113, “Fluorescent Albumin-Binding N-Propylbenzene Indolenine-Based Squaraines as Potential Candidates for Prostate Cancer Photodynamic Therapy Photosensitizers” (International Journal of Molecular Sciences, 2025).

What was measured:
Type in all cases: physicochemical
[1] = Absorption and fluorescence photophysical characterization in organic solvents
Procedure: UV–Vis spectra were recorded on a Perkin-Elmer Lambda 25 spectrophotometer (Perkin-Elmer, Waltham, MA, USA) using Hellma Analytics quartz cuvettes (1 cm path length; Hellma Analytics, Müllheim, Germany). Spectral data are reported as maximum absorption wavelength (λmax, nm) and molar absorptivity (ε, M^−1·cm^−1). The latter was calculated according to the Lambert–Beer law from calibration plots of absorbance at λmax versus known dye concentrations.
Ultraviolet–visible absorption spectra were obtained at room temperature using a PerkinElmer Lambda 25 spectrophotometer, while fluorescence emission data were collected on a Horiba Jobin Yvon FluoroMax-4 fluorometer. Singlet oxygen and photostability tests and measurements were carried out on a BioRad xMark microplate reader (Bio-Rad, Hercules, CA, USA).
[…] All stock solutions were prepared at 0.67 mM concentration and stored in the dark at 4 °C until further use. For spectroscopic characterization, 1.0 µM stock solutions of the squaraine dyes in dimethyl sulfoxide were serially diluted into a series of solvents (chloroform, dimethyl sulfoxide, methanol, and phosphate buffer) to obtain at least five defined concentrations. The absorption spectra of these dilutions were recorded and used to calculate molar extinction coefficients according to the Beer–Lambert law. Additional working solutions at a 1.0 µM concentration were prepared in dimethyl sulfoxide and buffer, and 1.0% Triton X-100 was added where required to investigate dye aggregation.
The emission areas were integrated, and relative quantum yields were calculated following established methodologies, considering both absorbance at the excitation wavelength and the refractive index of the solvent. The calculation was performed using Equation (2), where “dye” and “ref” denote the squaraine dyes and the reference compound, respectively; I corresponds to the integrated emission intensity, A to the absorbance value at the excitation wavelength, and η to the refractive index of the solvent:(2) ΦF(dye)= ΦF(Std)Idye/Iref Aref/Adye ηdye2/ηref2

[2] = Photophysical properties in phosphate buffer in the absence of HSA; conditions: phosphate buffer (pH 7.4)
Procedure: Squaraine dyes were dissolved in dimethyl sulfoxide, whereas zinc phthalocyanine required dimethylformamide as a solvent. All stock solutions were prepared at 0.67 mM concentration and stored in the dark at 4 °C until further use. For spectroscopic characterization, 1.0 µM stock solutions of the squaraine dyes in dimethyl sulfoxide were serially diluted into a series of solvents (chloroform, dimethyl sulfoxide, methanol, and phosphate buffer) to obtain at least five defined concentrations. The absorption spectra of these dilutions were recorded and used to calculate molar extinction coefficients according to the Beer–Lambert law. Additional working solutions at a 1.0 µM concentration were prepared in dimethyl sulfoxide and buffer, and 1.0% Triton X-100 was added where required to investigate dye aggregation.
For fluorometric experiments, the squaraine stock solutions were initially prepared in dimethylformamide and subsequently diluted with phosphate buffer for the protein–dye interaction analysis. Human serum albumin stock solution was then added to these mixtures, while keeping the dye concentration fixed at 2.0 µM and varying the protein concentration from 0 to 3.0 µM (0.0 to 3.0 µM for squaraines 5, 9, and 11, and from 0 to 6.0 µM for squaraine 13). Fluorescence intensities of the resulting solutions were recorded after 0, 3, and 24 h of incubation with the protein. The excitation wavelengths and excitation/emission slit widths used for the measurements were optimized for each dye, as listed in Table 6.

[3] = Singlet oxygen generation, 1,3-diphenylisobenzofuran (DPBF) assay; conditions: DMSO; LED irradiation; relative to benzoselenazole squaraine reference
Procedure: The ability of the squaraine dyes to generate singlet oxygen was assessed using the 1,3-diphenylisobenzofuran (DPBF) assay. In this method, squaraine solutions were incubated with DPBF and irradiated for different time intervals, followed by the monitoring of absorbance at 410 nm. A progressive decrease in DPBF absorbance was observed upon irradiation for all synthesized compounds, confirming their ability to produce this reactive oxygen species. However, it should be emphasized that the reference squaraine dye induced a sharp reduction in DPBF absorbance within a short irradiation period, with the decay being limited only by its intrinsic photoinstability.
Singlet oxygen production was assessed by monitoring the bleaching of 1,3-diphenylisobenzofuran (DPBF) at 410 nm. Fresh solutions of squaraine dyes (20 µM) and DPBF (0.1 mM) were introduced into 96-well plates, and decreases in absorbance were recorded before and after irradiation at defined time intervals. Quantum yields of singlet oxygen generation (ΦΔ) were determined by comparing the slopes of DPBF degradation for the squaraine dyes [S(dye)] with those of a benzoselenazole squaraine reference dye [S(ref), ΦΔ = 0.10], according to established linear regression procedures (Equation (1)). In parallel, photodegradation of the squaraines was monitored by following changes in their absorbance over time, with normalization applied to enable direct comparison across samples.(1) ΦΔdye=ΦΔref × Sdye/Sref

[4] = DMSO, relative to zinc phthalocyanine

Row | SMILES | Stokes shift (ΔS) ([1]; DMSO) | absorption maximum (λabs) ([1]; DMSO) | emission maximum (λem) ([1]; DMSO) | molar absorption coefficient (ε) ([1]; DMSO) | fluorescence quantum yield (ΦF) [1, 4] | Stokes shift (ΔS) ([1]; chloroform (CFM)) | absorption maximum (λabs) ([1]; chloroform (CFM)) | emission maximum (λem) ([1]; chloroform (CFM)) | fluorescence quantum yield (ΦF) ([1]; chloroform (CFM)) | molar absorption coefficient (ε) ([1]; chloroform (CFM)) | Stokes shift (ΔS) ([1]; methanol (MeOH)) | absorption maximum (λabs) ([1]; methanol (MeOH)) | emission maximum (λem) ([1]; methanol (MeOH)) | fluorescence quantum yield (ΦF) ([1]; methanol (MeOH)) | molar absorption coefficient (ε) ([1]; methanol (MeOH)) | Stokes shift (ΔS) [2] | absorption maximum (λabs) [2] | fluorescence quantum yield (ΦF) [2] | molar absorption coefficient (ε) [2] | singlet oxygen quantum yield (ΦΔ) [3] | other results
1 | CC1(C)C(=CC2=C([O-])C(=CC3=[N+](CCCc4ccccc4)c4ccccc4C3(C)C)C2=O)N(CCCc2ccccc2)c2ccccc21 [Dye 5, 4-[3,3-Dimethyl-1-(3-phenylpropyl)-indol-1-ium-2-ylmethylene]-2-[3,3-dimethyl-1-(3-phenylpropyl)indolin-2-ylidenemethyl]-3-oxocyclobut-1-en-1-olate] | 13 nm | 646 nm | 659 nm | 293000 M⁻¹ cm⁻¹ | 1.00 | 1 nm | 638 nm | 639 nm | 0.46 | 428000 M⁻¹ cm⁻¹ | 13 nm | 631 nm | 644 nm | 0.16 | 422000 M⁻¹ cm⁻¹ | 91 nm | 605 nm | 0.02 | 89000 M⁻¹ cm⁻¹ | <0.01 | emission maximum (λem) [2]: 696 nm
2 | CC1(C)C(=CC2=C(N)C(=CC3=[N+](CCCc4ccccc4)c4ccccc4C3(C)C)C2=O)N(CCCc2ccccc2)c2ccccc21.[I-] [Dye 9, 2-{2-Amino-3-[3,3-dimethyl-1-(3-phenylpropyl)indolin-2-ylidenemethyl]-4-oxocyclobut-2-en-1-ylidenemethyl}-3,3-dimethyl-1-(3-phenylpropyl)-indol-1-ium Iodide] | 12 nm | 652 nm | 664 nm | 232000 M⁻¹ cm⁻¹ | 0.12 | 9 nm | 647 nm | 656 nm | 0.08 | 330000 M⁻¹ cm⁻¹ | 12 nm | 640 nm | 652 nm | 0.02 | 303000 M⁻¹ cm⁻¹ | 37 nm | 605 nm | 0.00 | 58000 M⁻¹ cm⁻¹ | <0.01 | emission maximum (λem) [2]: 642 nm
3 | CNC1=C(C=C2N(CCCc3ccccc3)c3ccccc3C2(C)C)C(=O)C1=CC1=[N+](CCCc2ccccc2)c2ccccc2C1(C)C.[I-] [Dye 11, 2-{3-[3,3-Dimethyl-1-(3-phenylpropyl)indolin-2-ylidenemethyl]-2-(methylamino)-4-oxocyclobut-2-en-1-ylidenemethyl}-3,3-dimethyl-1-(3-phenylpropyl)-indol-1-ium Iodide] | 12 nm | 663 nm | 675 nm | 212000 M⁻¹ cm⁻¹ | 0.04 | 13 nm | 657 nm | 670 nm | 0.10 | 202000 M⁻¹ cm⁻¹ | 11 nm | 650 nm | 661 nm | 0.01 | 174000 M⁻¹ cm⁻¹ | – | 655 nm | 0.01 | 71000 M⁻¹ cm⁻¹ | <0.01 | –
4 | CC1(C)C(=CC2=C(NCc3ccc4ccc5cccc6ccc3c4c56)C(=CC3=[N+](CCCc4ccccc4)c4ccccc4C3(C)C)C2=O)N(CCCc2ccccc2)c2ccccc21.[I-] [Dye 14, 2-({3-[3,3-dimethyl-1-(3-phenylpropyl)indolin-2-ylidenemethyl]-4-oxo-2-[(pyren-1-ylmethyl)amino]cyclobut-2-en-1-ylidene}methyl)-3,3-dimethyl-1-(3-phenylpropyl)-indol-1-ium Iodide] | 15 nm | 661 nm | 676 nm | 197000 M⁻¹ cm⁻¹ | 0.05 | 13 nm | 658 nm | 671 nm | 0.06 | 281000 M⁻¹ cm⁻¹ | 13 nm | 650 nm | 663 nm | 0.01 | 285000 M⁻¹ cm⁻¹ | – | 672 nm | 0.00 | 67000 M⁻¹ cm⁻¹ | <0.01 | –
